The source of these data is US5118665A, “Anti-oxidative and anti-inflammatory metal:peptide complexes and uses thereof” (ProCyte Corporation, priority 1990, dated 1992).

Holding throughout (assay type): biochemical
For one experiment, the system named is superoxide anion. As to the kind of experiment: Superoxide dismutase mimetic activity, xanthine oxidase/NBT method. The note with it: for IC50: read-out: CONC. FOR 50% INHIB.; for CONC. FOR 50% INHIB.: Table 4, ratio 2:1 (binary) or 1:1:1 (ternary with chelating agent), ug copper(II) added per reaction. Here is the method: The reactions contained the following: 100 uM xanthine, 56 uM NBT (nitro blue tetrazolium) 1 unit of catalase, and 50 mM potassium phosphate buffer, pH 7.8. The reaction was initiated by the addition of xanthine oxidase in sufficient quantity to obtain an increase in absorbance at 560 nm of approximately 0.025/min. in a total sample volume of 1.7 ml. The xanthine oxidase was prepared fresh daily and stored on ice until used. All the components of the reaction are added except the xanthine oxidase and the spectrophotometer was adjusted to zero at 560 nm. The reaction was initiated by the addition of the xanthine oxidase. All reagents were obtained from Sigma Chemical Co.
Measurements of the absorbance at 560 nm were taken at 1-2 minute intervals for at least 16 minutes following addition of xanthine oxidase. A control consisted of reactions containing no metal:peptide complex.
All complexes were tested at a 2:1 molar ratio of peptide to metal. It should be noted that the absolute value found in enzymatic assays for SOD mimetic activity varries depending upon the enzyme lot used in the evaluation. Thus, the inclusion of GHL-Cu permits comparisons from experiment to experiment based on a normalized activity relative to GHL-Cu.
In this example, superoxide dismutase was measured by the xanthine oxidase/NBT method as described in Example 13. Each complex was tested relative to GHL-Cu assayed at the same time. All complexes were tested at a 2:1 molar ratio of peptide to metal.
In this example, superoxide dismutase was measured by the xanthine oxidase/NBT method as described in Example 13. Each compound was tested relative to GHL-Cu assayed at the same time. All complexes were tested at a 2:1 molar ratio of peptide to metal.
In this example, superoxide dismutase was measured by the xanthine oxidase/NBT method as described in Example 13. Each compound was tested relative to GHL-Cu or glycyl-L-histidyl-L-lysyl-L-valyl-L-phenylalanyl-valine:copper(II) ("GHLVFV-Cu") assayed at the same time. In this example, the amount of complex for 50% inhibition is expressed as ug copper(II) added per reaction necessary to achieve 50% inhibition of the control reaction.
In this example, superoxide dismutase was measured by the xanthine oxidase/NBT method as described in Example 13. Each compound was tested relative to GHL-Cu assayed at the same time.

The test system of another experiment is ferritin. The experiment can be described thus: Inhibition of ferritin iron release (bathophenanthroline disulfonate, A535). Conditions: 10 um complex, peptide:metal 1:1; for RATE INC. A535 nm min: 200 uM ferritin, no addition = 0.0060; for PERCENT INHIBITION: versus reaction with no additions. Here is the method:
(§1) Iron release from ferritin was measured by incubating ferritin with 10 um of a metal:peptide complexes of the present invention and determining the amount of iron released. Reaction mixtures contained 0.33 mM xanthine, 25 mU/ml xanthine oxidase, and 90 U/ml catalase as described in Example 13. In addition, 200 uM ferritin was added as a source of iron and 150 uM bathophenanthroline disulfonate to chelate and released iron. The release of iron was measured as an increase in the absorption of 535 nm due to the ironbathophenanthroline complex. The data is presented in Table 6 as this absorption rate and as a percent inhibition of a reaction with no additions. All the metal:peptide complexes are at a molar ratio of peptide to metal of 1:1.

In experiment [1] the test system is liposomes prepared from rat liver lipids. As to the kind of experiment: Inhibition of ferritin and superoxide anion dependent lipid peroxidation (MDA formation). The note with it: peptide:metal 1:1; for RATE nmole MDA/min/ml: incubations as Example 18, no addition = 0.220 (A), 0.150 (B); for PERCENT INHIBITION: versus reaction with no additions. Here is the method:
as §1
Lipid peroxidation was measured by determining the oxidation of lipids in liposomes prepared from rat liver lipids. Incubations were as described in Example 18 except that rat liver lipid […] were included. The oxidation was followed by determining the amount of malondialdehyde ("MDA") formed during the reaction. The data is presented in Table 7 as this absorption rate and as a percent inhibition of a reaction with no additions. All the metal:peptide complexes are at a molar ratio of peptide to metal of 1:1.

[2] abbreviates: Table 2, GHL:Cu of the same experiment = 100, peptide:metal 2:1.
The mark [3] stands for this setting: Table 2, peptide:metal 2:1, experiments A-G, each with its own GHL:Cu control.
Where [4] appears, read: Table 3, ratio 2:1, copper(II) versus manganese(II), experiments A, B.
Setting [5] is: Table 3, ratio 2:1, reference of the same experiment = 100.
The mark [6] stands for this setting: Table 1, GHL:Cu of the same experiment = 100, peptide:metal 2:1.
The mark [7] stands for this setting: Table 1, peptide:metal 2:1, pH 7.8, experiments A-E, each with its own GHL:Cu control.
Where [8] appears, read: Table 4 experiment A, GHL:Cu 2:1 = 100.
Where [9] appears, read: Table 5, GHL:Cu of the same experiment = 100, ratio 2:1.
Setting [10] is: Table 5, ratio 2:1, albumin binding moieties, experiments A, B.
[11] abbreviates: Table 4 experiment B, GHLVFV:Cu 2:1 = 100.

Like-named read-outs stand apart in the source and are kept apart here.

Take “Lhistidyl-glycyl-L-lysine:copper(II) [HGL:Cu]”: in the experiment on superoxide anion (setting [2]), the “RELATIVE to GHL-Cu” value was 22300. The IC50 at superoxide anion (setting [3]) is 0.3 µM. In the experiment on ferritin, the “RATE INC. A535 nm min” value worked out at 0.0008 A535 nm min and the “PERCENT INHIBITION” value came to 87%. Also, in experiment [1], the “RATE nmole MDA/min/ml” value was 0.020 nmole MDA/min/ml and the “PERCENT INHIBITION” value stood at 87%.
Consider “Lhistidyl-glycyl-L-lysine:manganese(II) [HGL:Mn]”, for which the IC50 at superoxide anion (setting [4]) worked out at 2 µM. Also, the “RELATIVE to GHL-Cu” value with superoxide anion (setting [5]) is reported as 2000.
On to “alanylL-histidyl-L-lysine:copper(II) [AHL:Cu]”, for which, in the experiment with superoxide anion (setting [2]), the “RELATIVE to GHL-Cu” value is 563. Further, the IC50 on superoxide anion (setting [3]) stood at 6 µM.
Consider “alanylL-histidyl-L-lysine:manganese(II) [AHL:Mn]”, for which, at superoxide anion (setting [4]), the IC50 was determined as 6 µM. Also, the “RELATIVE to GHL-Cu” value with superoxide anion (setting [5]) came to 667.
Take “glycyl-L-histidyl-L-lysine n-octyl ester:copper(II) [GHL-Octyl Ester:Cu]”: the entries for the “RELATIVE to GHL-Cu” value in the experiment with superoxide anion (setting [6]) and with superoxide anion (setting [5]) were 810 and 100, respectively. Further, the IC50 was 7 µM on superoxide anion (setting [7]) and 11 µM on superoxide anion (setting [4]). Also, in the experiment on ferritin, the “RATE INC. A535 nm min” value worked out at 0.0012 A535 nm min. The “PERCENT INHIBITION” value was 80% with ferritin and 73% in experiment [1]. The “RATE nmole MDA/min/ml” value in experiment [1] worked out at 0.060 nmole MDA/min/ml.
Take “glycyl-L-histidyl-L-lysine:copper(II) [GHL:Cu, reference compound]”: the “RELATIVE to GHL-Cu” value in the experiment on superoxide anion (setting [6]), with superoxide anion (setting [2]), in the experiment with superoxide anion (setting [5]), in the experiment with superoxide anion (setting [8]) and in the experiment on superoxide anion (setting [9]) was 100 throughout. Moreover, the “CONC. FOR 50% INHIB.” value at superoxide anion is listed as 3.2 ug copper(II) per reaction. Moreover, the “RATE INC. A535 nm min” value in the experiment with ferritin worked out at 0.0016 A535 nm min. Also, the “PERCENT INHIBITION” value is on record as 73% in the experiment with ferritin and 62% in experiment [1]. Besides, in experiment [1], the “RATE nmole MDA/min/ml” value came out at 0.084 nmole MDA/min/ml.
With “glycylL-(3-benzyl)-histidyl-L-lysine:copper(II) [G(3-Benzyl)HL:Cu]”, the “RELATIVE to GHL-Cu” value with superoxide anion (setting [2]) was determined as 145. In addition, the IC50 on superoxide anion (setting [3]) came out at 33 µM.
As for “glycylL-(3-methyl)-histidyl-L-lysine:copper(II) [G(3-Methyl)HL:Cu]”, in the experiment with superoxide anion (setting [2]), the “RELATIVE to GHL-Cu” value is 616. The IC50 at superoxide anion (setting [3]) worked out at 8 µM. Besides, in the experiment on ferritin, the “RATE INC. A535 nm min” value is 0.0010 A535 nm min and the “PERCENT INHIBITION” value is listed as 83%. Moreover, in experiment [1], the “RATE nmole MDA/min/ml” value stood at 0.104 nmole MDA/min/ml and the “PERCENT INHIBITION” value came to 31%.
In the case of “glycylL-(3-methyl)-histidyl-L-lysyl-glycyl-L-tryptophan:copper(II) [G(3-Methyl)HLGW:Cu]”, the “RELATIVE to GHL-Cu” value in the experiment with superoxide anion (setting [9]) is listed as 521. For the same substance, on superoxide anion (setting [10]), the IC50 was 11 µM.
Consider “glycylL-histidyl-L-lysine noctyl amide:copper(II) [GHL-Octyl Amide:Cu]”, for which, in the experiment with superoxide anion (setting [6]), the “RELATIVE to GHL-Cu” value was determined as 182. In addition, the IC50 at superoxide anion (setting [7]) came to 17 µM.
For the substance “glycylL-histidyl-L-lysine noctyl ester:manganese(II) [GHL-Octyl:Mn]”, the IC50 at superoxide anion (setting [4]) is 2 µM. The “RELATIVE to GHL-Cu” value in the experiment on superoxide anion (setting [5]) stood at 611.
Take “glycylL-histidyl-L-lysine npalmityl ester:copper(II) [GHL-Palmityl Ester:Cu]”: the “RELATIVE to GHL-Cu” value with superoxide anion (setting [6]) came out at 231. In addition, the IC50 at superoxide anion (setting [7]) stood at 24 µM.
Turning to “glycylL-histidyl-L-lysine:copper(II):histidine [GHL:Cu:H]”, at superoxide anion, the “CONC. FOR 50% INHIB.” value is 0.2 ug copper(II) per reaction. Also, the “RELATIVE to GHL-Cu” value in the experiment with superoxide anion (setting [8]) stood at 1600.
The corresponding values for “glycylL-histidyl-L-lysine:copper(II):imidazole [GHL:Cu:Im]” are 1.3 ug copper(II) per reaction and 246.
For the substance “glycylL-histidyl-L-lysyl-L-alanyl-L-phenylalanyl-L-alanine:copper(II) [GHLAFA:Cu]”, in the experiment with superoxide anion (setting [6]), the “RELATIVE to GHL-Cu” value is listed as 561. Moreover, the IC50 on superoxide anion (setting [7]) turned out to be 10 µM.
As for “glycylL-histidyl-L-lysyl-L-tryptophan:copper(II) [GHLW:Cu]”, the “RELATIVE to GHL-Cu” value with superoxide anion (setting [9]) is 4700. Also, on superoxide anion (setting [10]), the IC50 turned out to be 1 µM.
Regarding “glycylL-histidyl-L-lysyl-L-valyl-L-phenylalanyl-L-valine:copper(II) [GHLVFV:Cu]”, the “RELATIVE to GHL-Cu” value in the experiment on superoxide anion (setting [6]) came to 229. Besides, the IC50 on superoxide anion (setting [7]) was determined as 23 µM. Also, the “CONC. FOR 50% INHIB.” value on superoxide anion is 2.8 ug copper(II) per reaction. The “RELATIVE to GHL-Cu” value in the experiment on superoxide anion (setting [11]) was 100. For the same substance, in the experiment with ferritin, the “RATE INC. A535 nm min” value is recorded as 0.0011 A535 nm min and the “PERCENT INHIBITION” value is reported as 82%. Further, in experiment [1], the “RATE nmole MDA/min/ml” value turned out to be 0.140 nmole MDA/min/ml and the “PERCENT INHIBITION” value is listed as 36%.
On to “glycylL-histidyl-L-lysyl-L-valyl-L-phenylalanyl-L-valine:copper(II):histiine [GHLVFV:Cu:H]”, for which the “CONC. FOR 50% INHIB.” value at superoxide anion was 0.2 ug copper(II) per reaction. Further, the “RELATIVE to GHL-Cu” value with superoxide anion (setting [11]) is reported as 1400.
In the same order, the values of “glycylL-histidyl-L-lysyl-L-valyl-L-phenylalanyl-L-valine:copper(II):imidaole [GHLVFV:Cu:Im]” are 0.3 ug copper(II) per reaction and 930.
As for “glycylL-histidyl-cadaverine:copper(II) [GHCadaverine:Cu]”, the “RELATIVE to GHL-Cu” value with superoxide anion (setting [2]) is listed as 118. In addition, the IC50 at superoxide anion (setting [3]) worked out at 17 µM.
For the substance “glycylL-lysyl-L-histidine:copper(II) [GLH:Cu]”, in the experiment with superoxide anion (setting [2]), the “RELATIVE to GHL-Cu” value worked out at 75. Moreover, the IC50 at superoxide anion (setting [3]) worked out at 20 µM.
For the substance “glycylL-lysyl-L-histidine:manganese(II) [GLH:Mn]”, the IC50 on superoxide anion (setting [4]) worked out at 6 µM. Besides, the “RELATIVE to GHL-Cu” value in the experiment with superoxide anion (setting [5]) stood at 2000.
For “lysylL-histidyl-L-glycine amide:copper(II) [LHG-Amide:Cu]”, in the experiment on superoxide anion (setting [2]), the “RELATIVE to GHL-Cu” value is reported as 21. Also, the IC50 at superoxide anion (setting [3]) was 70 µM.
In the case of “lysylL-histidyl-L-glycine noctyl ester:copper(II) [LHG-Octyl Ester:Cu]”, the “RELATIVE to GHL-Cu” value in the experiment on superoxide anion (setting [6]) was 60. Besides, the IC50 at superoxide anion (setting [7]) stood at 10 µM.
Regarding “lysylL-histidyl-caprolactam:copper(II) [GHCaprolactam:Cu]”, the “RELATIVE to GHL-Cu” value in the experiment on superoxide anion (setting [2]) is 4500. Also, at superoxide anion (setting [3]), the IC50 turned out to be 0.8 µM.
Regarding “lysylL-histidyl-glycyl-L-valyl-L-phenylalanyl-L-valine:copper(II) [LHGVFV:Cu]”, the “RELATIVE to GHL-Cu” value with superoxide anion (setting [6]) was 46. In addition, the IC50 at superoxide anion (setting [7]) turned out to be 13 µM.
